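Tested at 5 concentrations; 48 h exposure; 96-well plates; endpoints linearly interpolated, else capped at highest concentration. GI50: concentration for 50% inhibition of growth.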 The source made the active and inactive calls. No stated cut-off is given here; in the data, active = GI50 up to about 1.1 µM and inactive = higher.

We go through 8 compounds from ChEMBL document CHEMBL1201862, “PubChem BioAssay data set” (2004).

Some test systems named below: 786-0; M14; UACC-257; DU-145; UACC-62; COLO 205; MDA-N; PC-3; SR; K562; OVCAR-5; OVCAR-4; TK-10; NCI-H226; HCT-15; SK-MEL-5; SW-620; RXF 393.
What all share (test): inhibition of tumour cell growth, NCI panel, 48 h

`O=C1c2ccccc2C(=O)c2c1c1cc(O)ccc1n2Cc1ccc(Cl)cc1Cl`: the GI50 was 2.75 µM (inactive) with 786-0; 15.9 µM (inactive) in the test with M14; 25.1 µM (inactive) with UACC-257; 8.13 µM (inactive) with DU-145; 7.66 µM (inactive) in the test on UACC-62; 15.1 µM (inactive) in the test with COLO 205. Besides, the GI50 is 12.1 µM (inactive) with MDA-N; 1.61 µM (inactive) in the test on PC-3; 3.61 µM (inactive) in the test with SR; 32.2 µM (inactive) with K562; 1.89 µM (inactive) with OVCAR-5; 1.9 µM (inactive) in the test with OVCAR-4. For the same compound, the GI50 with TK-10 was 9.29 µM (inactive); with NCI-H226 it was 11.5 µM (inactive); in the test on HCT-15 it was 5.66 µM; in the test on SK-MEL-5 it was 17.2 µM (inactive); with SW-620, 8.17 µM (inactive); in the test with RXF 393 it was 2.14 µM (inactive).
`C[C@]12CCC3c4ccc(O)cc4CC[C@H]3C1CC(=O)N(CCN1CCCC1)C2=O` (some centres undefined): the GI50 in the test with 786-0, in the test on M14, in the test with UACC-257, with DU-145, in the test on UACC-62 and in the test on COLO 205 was > 10 µM (inactive) each time. Further, the GI50 in the test with MDA-N, in the test on PC-3, in the test on SR, in the test on K562, in the test with OVCAR-5 and with OVCAR-4 was > 10 µM (inactive) in each case. For the same compound, the GI50 was > 10 µM (inactive) in the test with TK-10; > 10 µM (inactive) in the test with NCI-H226; above 10 µM with HCT-15; > 10 µM (inactive) in the test on SK-MEL-5; > 10 µM (inactive) with SW-620; > 10 µM (inactive) in the test with RXF 393.
For `COc1cccc2c(NNc3ccc(Cl)cc3)c3ccc([N+](=O)[O-])cc3nc12`, the GI50 with 786-0 is 8.97 µM (inactive); in the test with M14, 12.3 µM (inactive); in the test with UACC-257, 19.2 µM (inactive); with DU-145 it was 9.84 µM (inactive); with UACC-62 it was 8.38 µM (inactive); with COLO 205, 21.6 µM (inactive). Further, the GI50 with MDA-N is 36.4 µM (inactive); in the test on PC-3, 8.91 µM (inactive); in the test on SR it was 1.08 µM (active); in the test with K562, 11.7 µM (inactive); in the test on OVCAR-5, 22.9 µM (inactive); with OVCAR-4, 11.9 µM (inactive). For the same compound, the GI50 was 10.3 µM (inactive) in the test on TK-10; 13.9 µM (inactive) in the test with NCI-H226; 8.59 µM in the test on HCT-15; 12.4 µM (inactive) in the test with SK-MEL-5; 13.8 µM (inactive) in the test with SW-620; 14.7 µM (inactive) in the test with RXF 393.
Consider `CC(=O)OCC12C(=O)C[C@@H](C)C3(CC(c4ccoc4)OC3=O)C1CCC(OC(C)=O)C21CO1` (some centres undefined), for which the GI50 with 786-0, in the test with M14, with UACC-257, in the test on DU-145, in the test on UACC-62 and in the test with COLO 205 was > 100 µM (inactive) in each case. Besides, the GI50 in the test on MDA-N, in the test on PC-3, in the test with SR, in the test on K562, in the test with OVCAR-5 and in the test on OVCAR-4 was > 100 µM (inactive) in each case. Further, the GI50 in the test with TK-10 was > 100 µM (inactive); with NCI-H226, > 100 µM (inactive); with HCT-15, above 100 µM; with SK-MEL-5, > 100 µM (inactive); in the test on SW-620, > 100 µM (inactive); with RXF 393, 87.3 µM (inactive).
Turning to `COc1ccc(CSC2=C(C#N)C(=O)NC3(CCCCC3)S2)cc1`, the GI50 in the test on 786-0 is 64.1 µM (inactive); in the test with M14 it was 42.2 µM (inactive); in the test on UACC-257 it was > 81.7 µM (inactive); with DU-145 it was > 85.7 µM (inactive); in the test with UACC-62, 61.4 µM (inactive); in the test on COLO 205, > 61.8 µM (inactive). The GI50 is 22.4 µM (inactive) with MDA-N; 74.8 µM (inactive) with PC-3; 71.3 µM (inactive) in the test with SR; > 50 µM (inactive) with K562; > 100 µM (inactive) in the test on OVCAR-5; 36.6 µM (inactive) with OVCAR-4. Moreover, the GI50 in the test on TK-10 is > 95.5 µM (inactive); in the test on NCI-H226 it was > 100 µM (inactive); in the test with HCT-15, 57.8 µM; with SK-MEL-5 it was 42.5 µM (inactive); in the test on SW-620 it was 32.6 µM (inactive); with RXF 393, 30.5 µM (inactive).
Turning to `C[N+]1(C(CO)Cc2c[nH]c3ccccc23)Cc2ccccc2C1` (centres undefined), the GI50 with 786-0 was > 100 µM (inactive); in the test with M14 it was 35.8 µM (inactive); in the test with UACC-257 it was 44 µM (inactive); with DU-145, > 100 µM (inactive); in the test with UACC-62 it was > 100 µM (inactive); in the test on COLO 205 it was > 100 µM (inactive). The GI50 with MDA-N is > 100 µM (inactive); with PC-3 it was > 100 µM (inactive); with SR, > 100 µM (inactive); in the test with K562, 89.7 µM (inactive); with OVCAR-5, 89.3 µM (inactive); in the test with OVCAR-4, > 100 µM (inactive). Further, the GI50 in the test on TK-10 is > 100 µM (inactive); in the test with NCI-H226, > 100 µM (inactive); in the test on HCT-15, above 100 µM; in the test with SK-MEL-5 it was 32.6 µM (inactive); with SW-620 it was > 100 µM (inactive); in the test with RXF 393 it was > 100 µM (inactive).
On to `CSc1nc2cc(S(=O)(=O)N3CCCCC3)ccc2s1`, for which the GI50 with 786-0 was > 100 µM (inactive); with M14, > 100 µM (inactive); in the test on UACC-257, 48.3 µM (inactive); in the test on DU-145, > 100 µM (inactive); in the test on UACC-62, > 100 µM (inactive); in the test on COLO 205 it was > 100 µM (inactive). The GI50 with MDA-N, in the test with PC-3, with SR, in the test with K562, in the test with OVCAR-5 and in the test with OVCAR-4 was > 100 µM (inactive) each time. Moreover, the GI50 in the test with TK-10 was > 100 µM (inactive); in the test with NCI-H226 it was > 100 µM (inactive); in the test with HCT-15, above 100 µM; in the test on SK-MEL-5, > 100 µM (inactive); with SW-620 it was > 100 µM (inactive); with RXF 393 it was > 100 µM (inactive).
Take `CN(C)CCCNC(=O)c1cc(NC(=O)c2cc(NS(=O)(=O)c3ccc4c(c3)C(=O)c3ccccc3C4=O)cn2C)cn1C`: the GI50 in the test on 786-0 is > 100 µM (inactive); with M14, > 100 µM (inactive); in the test with UACC-257, 45.8 µM (inactive); in the test on DU-145, > 100 µM (inactive); with UACC-62 it was 89.9 µM (inactive); in the test on COLO 205 it was 83.9 µM (inactive). Further, the GI50 in the test with MDA-N was 88.5 µM (inactive); in the test with PC-3, > 100 µM (inactive); in the test with SR it was 27 µM (inactive); in the test with K562, 52.6 µM (inactive); in the test on OVCAR-5, > 100 µM (inactive); with OVCAR-4 it was > 100 µM (inactive). Besides, the GI50 in the test on TK-10 was > 100 µM (inactive); in the test with NCI-H226, > 100 µM (inactive); in the test on HCT-15, above 100 µM; with SK-MEL-5, 29.2 µM (inactive); with SW-620, 94.8 µM (inactive); in the test on RXF 393, > 100 µM (inactive).
